Experimental data reported in patent publication US8609660B2, “4,7-dihydro-pyrazolo[1,5-a]pyrazin-6-ylamine derivatives useful as inhibitors of beta-secretase (BACE)” (Janssen Pharmaceutica NV, priority 2010, dated 2013).

What was measured:
[1] = target: T1, recombinant BACE1 protein (Homo sapiens, UniProt P56817); assay: Biochemical FRET based assay; conditions: recombinant BACE1 1 μg/ml, 120 min, room temperature, pH 5.0; for IC50: read-out: Biochemical FRET based assay pIC50 (converted)
T1 construct: recombinant BACE1 protein in a final concentration of 1 μg/ml
T1 sequence (P56817 46-501): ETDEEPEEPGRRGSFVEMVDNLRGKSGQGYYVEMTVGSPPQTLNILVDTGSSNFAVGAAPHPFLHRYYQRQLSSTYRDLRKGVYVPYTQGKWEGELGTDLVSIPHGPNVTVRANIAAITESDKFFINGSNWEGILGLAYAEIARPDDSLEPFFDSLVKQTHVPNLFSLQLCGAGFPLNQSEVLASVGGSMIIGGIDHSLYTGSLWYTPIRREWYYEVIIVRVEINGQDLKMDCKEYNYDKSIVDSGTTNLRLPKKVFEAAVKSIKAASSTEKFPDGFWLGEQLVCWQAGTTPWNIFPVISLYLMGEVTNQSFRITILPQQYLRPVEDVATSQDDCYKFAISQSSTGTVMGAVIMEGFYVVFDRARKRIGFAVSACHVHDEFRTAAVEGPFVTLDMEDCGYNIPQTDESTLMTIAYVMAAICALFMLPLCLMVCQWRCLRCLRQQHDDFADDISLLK
Description: Biochemical FRET Based Assay This assay is a Fluorescence Resonance Energy Transfer Assay (FRET) based assay. The substrate for this assay is an APP derived 13 amino acids peptide that contains the 'Swedish' […] mutation of the amyloid precursor protein (APP) β-secretase cleavage site. […] Upon cleavage by BACE1, the fluorophore Mca is separated from the quenching group Dnp, restoring the full fluorescence yield of the donor. The increase in fluorescence is linearly related to the rate of proteolysis (Koike H et al. J Biochem. 1999, 126, 235-42). Briefly in a 384-well format recombinant BACE1 protein in a final concentration of 1 μg/ml is incubated for 120 minutes at room temperature with 10 μm substrate in incubation buffer (40 mM Citrate buffer pH 5.0, 0.04% PEG, 4% DMSO) in the absence or presence of compound. Next the amount of proteolysis is directly measured by fluorescence measurement at T=0 and T=120 (excitation at 320 nm and emission at 405 nm). […] [formula]

[2] = tested on: Aβtotal produced and secreted into the medium of human neuroblastoma SKNBE2 cells; assay: Cellular αlisa assay in SKNBE2 cells, Aβtotal; format: cell-based; conditions: SKNBE2 cells expressing hAPP695, 18 hours incubation; for IC50: Homo sapiens, SKNBE2, 18 h, read-out: Cellular αlisa assay in SKNBE2 cells Aβtotal pIC50 (converted)
Method: (§1) Cellular αlisa Assay in SKNBE2 Cells In two αlisa assays the levels of Aβtotal and Aβ42 produced and secreted into the medium of human neuroblastoma SKNBE2 cells are quantified. The assay is based on the human neuroblastoma SKNBE2 expressing the wild type Amyloid Precursor Protein (hAPP695). […] Aβtotal and Aβ42 are measured by sandwich α[…] sandwich assay using biotinylated antibody AbN/25 attached to streptavidin coated beads and antibody Ab4G8 or cAb42/26 conjugated acceptor beads for the detection of Aβtotal and Aβ42 respectively. In the presence of Aβtotal or Aβ42, the beads come into close proximity. The excitation of the Donor beads provokes the release of singlet oxygen molecules that triggers a cascade of energy transfer in the Acceptor beads, resulting in light emission. Light emission is measured after 1 hour incubation (excitation at […] and emission at 615 nm). A best-fit curve is fitted by a minimum sum of squares method to the plot of % Controlmin versus compound concentration. […] [formula]

[3] = tested on: Aβ42 produced and secreted into the medium of human neuroblastoma SKNBE2 cells; assay: Cellular αlisa assay in SKNBE2 cells, Aβ42; format: cell-based; conditions: SKNBE2 cells expressing hAPP695, 18 hours incubation; for IC50: Homo sapiens, SKNBE2, 18 h, read-out: Cellular αlisa assay in SKNBE2 cells Aβ42 pIC50 (converted)
Method: as §1

| IC50 [1] [µM] | IC50 [2] [µM] | IC50 [3] [µM] | Biochemical FRET based assay pIC50 [1] | Cellular αlisa assay in SKNBE2 cells Aβtotal pIC50 [2] | Cellular αlisa assay in SKNBE2 cells Aβ42 pIC50 [3] | SMILES |
| --- | --- | --- | --- | --- | --- | --- |
| 3.31 | 0.355 | 0.457 | – | – | – | CC1(c2cccc(-c3cncnc3)c2)N=C(N)Cn2nccc21 (racemic) [Compound 1, rac-4-methyl-4-(3-pyrimidin-5-ylphenyl)-4,7-dihydropyrazolo[1,5-a]pyrazin-6-amine] |
| – | 0.0117 | 0.0107 | – | – | – | CC1(c2cccc(NC(=O)c3ccc(Cl)cn3)c2)N=C(N)Cn2nccc21 (racemic) [Compound 3, rac-N-[3-(6-amino-4-methyl-4,7-dihydropyrazolo[1,5-a]pyrazin-4-yl)-phenyl]-5-chloropyridine-2-carboxamide] |
| – | – | – | 5.49 | 6.41 | 6.4 | COc1cncc(-c2cc(C3(C)N=C(N)Cn4nccc43)c(F)cc2F)c1 (racemic) [Compound 5] |
| – | – | – | 5.53 | 6.13 | 6.06 | COc1cccc(-c2cc(C3(C)N=C(N)Cn4nccc43)c(F)cc2F)c1 (racemic) [Compound 6] |
| – | – | – | 6.84 | 7.73 | 7.72 | CC1(c2cc(NC(=O)c3ccc(Cl)cn3)ccc2F)N=C(N)Cn2nccc21 (racemic) [Compound 13] |
| – | – | – | 4.98 | 5.48 | 5.53 | CC1(c2cc(-c3cncnc3)ccc2F)N=C(N)Cn2nccc21 (racemic) [Compound 16] |
| – | – | – | 6.68 | 6.78 | 6.8 | COc1cnc(C(=O)Nc2ccc(F)c(C3(C)N=C(N)Cn4nc(C(F)(F)F)cc43)c2)cn1 (racemic) [Compound 30] |
| 0.603 | – | – | – | 6.18 | 6.13 | COc1cncc(-c2cccc(C3(C)N=C(N)Cn4nc(C(F)(F)F)cc43)c2)c1 (single isomer, unassigned) [Compound 22, (R*)-4-[3-(5-methoxypyridin-3-yl)-phenyl]-4-methyl-2-(trifluoromethyl)-4,7-dihydropyrazolo[1,5-a]pyrazin-6-amine] |
| > 30.2 | – | – | – | <5 | <5 | COc1cncc(-c2cccc(C3(C)N=C(N)Cn4nc(C(F)(F)F)cc43)c2)c1 (single isomer, unassigned) [Compound 23, (S*)-4-[3-(5-methoxypyridin-3-yl)-phenyl]-4-methyl-2-(trifluoromethyl)-4,7-dihydropyrazolo[1,5-a]pyrazin-6-amine] |
| 3.63 | – | – | – | 5.64 | 5.5 | CC1(c2cc(-c3cncc(Cl)c3)ccc2F)N=C(N)Cn2nc(C(F)(F)F)cc21 (single isomer, unassigned) [Compound 25, (R*)-4-[5-(5-chloropyridin-3-yl)-2-fluorophenyl]-4-methyl-2-(trifluoromethyl)-4,7-dihydropyrazolo[1,5-a]pyrazin-6-amine] |
| > 30.2 | – | – | – | <5 | <5 | CC1(c2cc(-c3cncc(Cl)c3)ccc2F)N=C(N)Cn2nc(C(F)(F)F)cc21 (single isomer, unassigned) [Compound 26, (S*)-4-[5-(5-chloropyridin-3-yl)-2-fluorophenyl]-4-methyl-2-(trifluoromethyl)-4,7-dihydropyrazolo[1,5-a]pyrazin-6-amine] |
| 0.0912 | – | – | – | 7.1 | 6.99 | CC1(c2cc(NC(=O)c3ncc(Cl)cc3Cl)ccc2F)N=C(N)Cn2nc(C(F)(F)F)cc21 (single isomer, unassigned) [Compound 28, (R*)—N-{3-[6-amino-4-methyl-2-(trifluoromethyl)-4,7-dihydropyrazolo[1,5-a]pyrazin-4-yl]-4-fluorophenyl}-3,5-dichloropyridine-2-carboxamide] |
| 15.5 | – | – | – | <5 | <5 | CC1(c2cc(NC(=O)c3ncc(Cl)cc3Cl)ccc2F)N=C(N)Cn2nc(C(F)(F)F)cc21 (single isomer, unassigned) [Compound 29, (S*)—N-{3-[6-amino-4-methyl-2-(trifluoromethyl)-4,7-dihydropyrazolo[1,5-a]pyrazin-4-yl]-4-fluorophenyl}-3,5-dichloropyridine-2-carboxamide] |
| – | – | – | 6.73 | 6.99 | 6.92 | COc1cnc(C(=O)Nc2ccc(F)c(C3(C)N=C(N)Cn4nc(C(F)(F)F)cc43)c2)cn1 (single isomer, unassigned) [Compound 31] |
| – | – | – | <4.52 | 6.54 | 6.56 | COc1cnc(C(=O)Nc2ccc(F)c(C3(C)N=C(N)Cn4nc(C(F)(F)F)cc43)c2)cn1 (single isomer, unassigned) [Compound 32] |
| – | – | – | 5.65 | 6.54 | 6.61 | CC1(c2cccc(-c3cncnc3)c2)N=C(N)Cn2nccc21 (stereo not shown) [Compound 8] |
| – | – | – | 6.05 | 6.94 | 6.93 | COc1cncc(-c2cccc(C3(C)N=C(N)Cn4nccc43)c2)c1 (stereo not shown) [Compound 9] |
| – | – | – | 6.11 | 6.11 | 6.09 | CC1(c2cccc(-c3cc(F)cc(F)c3)c2)N=C(N)Cn2nccc21 (stereo not shown) [Compound 14] |
| – | – | – | – | 8.08 | 8.09 | CC1(c2cccc(NC(=O)c3ccc(Cl)cn3)c2)N=C(N)Cn2nccc21 (stereo not shown) [Compound 17] |
| – | – | – | 5.77 | 5.91 | 5.81 | CC1(c2cccc(-c3cccc(OC(F)(F)F)c3)c2)N=C(N)Cn2nccc21 (stereo not shown) [Compound 19] |
| 1.07 | 0.398 | 0.407 | – | – | – | COc1cncc(-c2cccc(C3(C)N=C(N)Cn4nc(C(F)(F)F)cc43)c2)c1 (stereo not drawn) [Compound 21, rac-4-[3-(5-methoxypyridin-3-yl)-phenyl]-4-methyl-2-(trifluoromethyl)-4,7-dihydropyrazolo[1,5-a]pyrazin-6-amine] |
| 7.24 | 5.37 | 5.89 | – | – | – | CC1(c2cc(-c3cncc(Cl)c3)ccc2F)N=C(N)Cn2nc(C(F)(F)F)cc21 (stereo not drawn) [Compound 24, rac-4-[5-(5-chloropyridin-3-yl)-2-fluorophenyl]-4-methyl-2-(trifluoromethyl)-4,7-dihydropyrazolo[1,5-a]pyrazin-6-amine] |
| 0.145 | 0.17 | 0.17 | – | – | – | CC1(c2cc(NC(=O)c3ncc(Cl)cc3Cl)ccc2F)N=C(N)Cn2nc(C(F)(F)F)cc21 (stereo not drawn) [Compound 27, rac-N-{3-[6-amino-4-methyl-2-(trifluoromethyl)-4,7-dihydropyrazolo[1,5-a]pyrazin-4-yl]-4-fluorophenyl}-3,5-dichloropyridine-2-carboxamide] |
| – | – | – | 6.51 | 7.19 | 7.11 | COc1cnc(C(=O)Nc2ccc(F)c(C3(C4CC4)N=C(N)Cn4nccc43)c2)cn1 (stereo not shown) [Compound 34] |

| SMILES | IC50 [1] [µM] | IC50 [2] [µM] | IC50 [3] [µM] | Biochemical FRET based assay pIC50 [1] | Cellular αlisa assay in SKNBE2 cells Aβtotal pIC50 [2] | Cellular αlisa assay in SKNBE2 cells Aβ42 pIC50 [3] |
| --- | --- | --- | --- | --- | --- | --- |
| CC1(c2cc(-c3ccccc3)c(F)cc2F)N=C(N)Cn2nccc21 (racemic) [Compound 12] | – | – | – | 4.88 | 5.67 | 5.58 |
| CC1(c2cc(-c3cc(Cl)cc(Cl)c3)ccc2F)N=C(N)Cn2nccc21 (racemic) [Compound 15] | – | – | – | 5.68 | 5.52 | 5.48 |
| CC1(c2cc(-c3cccc(C#N)c3)c(F)cc2F)N=C(N)Cn2nccc21 (racemic) [Compound 18] | – | – | – | 4.75 | 5.67 | 5.76 |
